According to ChEMBL document CHEMBL1201862, “PubChem BioAssay data set” (2004):
Calls of active or inactive are those of the source.

Tests used:
[1] = tested on: BJ; test: growth inhibition of engineered Ras-driven BJ cells – cell-based, alamar blue fluorescence, cherrypicked samples, dose response (AID 2631); assay type: functional; conditions: Homo sapiens;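 note: confirmatory dose-response assay in RAS-dependent BJ fibroblasts engineered with TERT, LT and ST, with cytotoxicity read by fluorescence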
[2] = DRD fibroblast viability loss – cell-based, non-viral oncogenic, luminescence, dose response (AID 1934); assay type: functional; conditions: Homo sapiens
[3] = target: Luciferin 4-monooxygenase (Photinus pyralis, UniProt P08659); test: inhibition of purified Photinus pyralis luciferase – biochemical, luminescence, dose response (AID 1891)
[4] = tested on: BJ; test: BJ-TERT-LT-ST fibroblast viability loss – cell-based, RAS-independent, luminescence, dose response (AID 1935); assay type: functional; conditions: Homo sapiens;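 note: BJ fibroblasts immortalized with TERT plus LT and ST oncogenes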
[5] = tested on: BJ; test: BJ-TERT fibroblast viability loss – cell-based, RAS-independent, luminescence, dose response (AID 1933); assay type: functional; conditions: Homo sapiens
[6] = tested on: HEK293; test: EBV LMP1 TES2 canonical NF-kB signalling blockers – cell-based, HEK293, luciferase, cherry-pick, dose response (AID 588343); assay type: functional; conditions: Homo sapiens
[7] = target: Cyclin-dependent kinase 5/CDK5 activator 1 (Homo sapiens, UniProt Q00535); test: blockade of human CDK5 activity – biochemical, cherry-picked samples, set 2, dose response (AID 504545)
[8] = ADP-Glo luciferase signal interference – biochemical, luminescence, cherry-picked samples, set 2, artefact control for CDK5 inhibitor project, dose response (AID 504546); assay type: functional, cell-based
[9] = tested on: BJ; test: cells; assay type: functional, cell-based; conditions: Homo sapiens
[10] = Luminescence Cell-Based Dose Confirmation HTS to Identify Inhibitors of Platelet Dense Granule Release. [Related pubchem assays: 1663 (Primary HTS), 1678 (Summary of Project)]; assay type: functional
[11] = target: T1, Polyadenylate-binding protein 1 (Homo sapiens, UniProt P11940); test: blockers of PABP interaction with poly(A) – biochemical, fluorescence polarization, […] (AID 2014)
[12] = target: T2, DNA dC->dU-editing enzyme APOBEC-3A (Homo sapiens, UniProt P31941); test: Dose Response confirmation of small molecule APOBEC3A DNA Deaminase Inhibitors via a fluorescence-based single-stranded DNA deaminase assay. [Related pubchem assays (depositor defined):AID493011, AID493024]; assay type: functional
[13] = target: T3, Eukaryotic translation initiation factor 4H (Homo sapiens, UniProt Q15056); test: eIF4H binding inhibition – biochemical, uHTS, fluorescence polarization, translation initiation inhibitor project, primary screen (AID 2012)
[14] = target: T4, DNA dC->dU-editing enzyme APOBEC-3G (Homo sapiens, UniProt Q9HC16); assay type: functional
[15] = cells; assay type: functional, cell-based; conditions: PPC-1
[16] = tested on: MDA-MB-435; test: cells; assay type: functional, cell-based; conditions: Homo sapiens
[17] = target: T4, DNA dC->dU-editing enzyme APOBEC-3G; test: Dose Response confirmation of small molecule APOBEC3G DNA Deaminase Inhibitors via a fluorescence-based single-stranded DNA deaminase assay. [Related pubchem assays (depositor defined):AID493012, AID493028]; assay type: functional
[18] = target: T2, DNA dC->dU-editing enzyme APOBEC-3A; test: A3A deaminase inhibition for selectivity – biochemical, dose response (AID 504722); assay type: functional
[19] = target: T1, Polyadenylate-binding protein 1; test: PABP inhibition in translation initiation, SAR follow-up (AID 435018); assay type: functional
[20] = target: T3, Eukaryotic translation initiation factor 4H; test: inhibitors of translation initiation factor eIF4H – SAR follow-up (AID 435011); assay type: functional
[21] = target: Cystic fibrosis transmembrane conductance regulator/Golgi-associated PDZ and coiled-coil motif-containing protein (Homo sapiens, UniProt P13569+Q9HD26); test: potency against CAL PDZ-peptide interaction – biochemical, fluorescence polarization, Cerulean-tagged CAL PDZ, cherry-picks, dose response (AID 504773)
[22] = target: Importin subunit alpha-1 (Homo sapiens, UniProt P52292); test: compounds lowering YIC probe YFP/CFP ratio – biochemical, dry powder samples, FRET, counter-screen for RanGTP-importin-beta inhibitor project, dose response (AID 493094); assay type: functional

T4 sequence (Q9HC16 whole entry): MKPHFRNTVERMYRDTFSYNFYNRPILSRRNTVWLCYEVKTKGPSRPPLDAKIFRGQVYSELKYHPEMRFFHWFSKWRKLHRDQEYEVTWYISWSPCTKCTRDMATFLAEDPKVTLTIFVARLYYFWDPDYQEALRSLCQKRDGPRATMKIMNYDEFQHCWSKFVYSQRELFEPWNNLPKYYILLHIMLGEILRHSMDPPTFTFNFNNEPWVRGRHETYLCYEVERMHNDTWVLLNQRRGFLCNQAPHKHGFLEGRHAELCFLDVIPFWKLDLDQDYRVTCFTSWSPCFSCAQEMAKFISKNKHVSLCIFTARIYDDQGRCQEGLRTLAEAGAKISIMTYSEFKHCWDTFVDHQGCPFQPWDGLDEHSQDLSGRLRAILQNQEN
T2 sequence (P31941 whole entry): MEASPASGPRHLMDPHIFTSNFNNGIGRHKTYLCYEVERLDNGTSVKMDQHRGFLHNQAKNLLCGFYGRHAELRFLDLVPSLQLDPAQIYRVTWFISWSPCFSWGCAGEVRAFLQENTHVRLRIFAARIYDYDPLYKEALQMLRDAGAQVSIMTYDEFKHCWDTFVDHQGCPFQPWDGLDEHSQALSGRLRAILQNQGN
T1 sequence (P11940 whole entry): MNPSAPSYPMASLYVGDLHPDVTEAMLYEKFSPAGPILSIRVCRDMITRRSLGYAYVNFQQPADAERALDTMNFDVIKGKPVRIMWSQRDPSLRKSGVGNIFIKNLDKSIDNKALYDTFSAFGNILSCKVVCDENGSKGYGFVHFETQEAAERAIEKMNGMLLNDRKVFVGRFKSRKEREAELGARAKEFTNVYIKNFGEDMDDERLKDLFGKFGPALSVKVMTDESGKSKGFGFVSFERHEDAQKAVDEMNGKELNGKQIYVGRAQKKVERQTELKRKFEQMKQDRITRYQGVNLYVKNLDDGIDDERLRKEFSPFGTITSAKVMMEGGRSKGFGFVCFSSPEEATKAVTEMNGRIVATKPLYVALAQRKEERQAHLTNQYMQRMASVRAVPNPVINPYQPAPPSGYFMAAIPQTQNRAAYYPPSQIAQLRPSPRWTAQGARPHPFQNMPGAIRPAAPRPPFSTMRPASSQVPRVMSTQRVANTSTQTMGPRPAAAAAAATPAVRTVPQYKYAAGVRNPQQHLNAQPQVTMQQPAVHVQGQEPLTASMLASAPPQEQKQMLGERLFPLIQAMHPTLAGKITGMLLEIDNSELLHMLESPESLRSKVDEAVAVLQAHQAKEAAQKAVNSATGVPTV
Sequence of Cystic fibrosis transmembrane conductance regulator/Golgi-associated PDZ and coiled-coil motif-containing protein (P13569 whole entry, other chains not shown): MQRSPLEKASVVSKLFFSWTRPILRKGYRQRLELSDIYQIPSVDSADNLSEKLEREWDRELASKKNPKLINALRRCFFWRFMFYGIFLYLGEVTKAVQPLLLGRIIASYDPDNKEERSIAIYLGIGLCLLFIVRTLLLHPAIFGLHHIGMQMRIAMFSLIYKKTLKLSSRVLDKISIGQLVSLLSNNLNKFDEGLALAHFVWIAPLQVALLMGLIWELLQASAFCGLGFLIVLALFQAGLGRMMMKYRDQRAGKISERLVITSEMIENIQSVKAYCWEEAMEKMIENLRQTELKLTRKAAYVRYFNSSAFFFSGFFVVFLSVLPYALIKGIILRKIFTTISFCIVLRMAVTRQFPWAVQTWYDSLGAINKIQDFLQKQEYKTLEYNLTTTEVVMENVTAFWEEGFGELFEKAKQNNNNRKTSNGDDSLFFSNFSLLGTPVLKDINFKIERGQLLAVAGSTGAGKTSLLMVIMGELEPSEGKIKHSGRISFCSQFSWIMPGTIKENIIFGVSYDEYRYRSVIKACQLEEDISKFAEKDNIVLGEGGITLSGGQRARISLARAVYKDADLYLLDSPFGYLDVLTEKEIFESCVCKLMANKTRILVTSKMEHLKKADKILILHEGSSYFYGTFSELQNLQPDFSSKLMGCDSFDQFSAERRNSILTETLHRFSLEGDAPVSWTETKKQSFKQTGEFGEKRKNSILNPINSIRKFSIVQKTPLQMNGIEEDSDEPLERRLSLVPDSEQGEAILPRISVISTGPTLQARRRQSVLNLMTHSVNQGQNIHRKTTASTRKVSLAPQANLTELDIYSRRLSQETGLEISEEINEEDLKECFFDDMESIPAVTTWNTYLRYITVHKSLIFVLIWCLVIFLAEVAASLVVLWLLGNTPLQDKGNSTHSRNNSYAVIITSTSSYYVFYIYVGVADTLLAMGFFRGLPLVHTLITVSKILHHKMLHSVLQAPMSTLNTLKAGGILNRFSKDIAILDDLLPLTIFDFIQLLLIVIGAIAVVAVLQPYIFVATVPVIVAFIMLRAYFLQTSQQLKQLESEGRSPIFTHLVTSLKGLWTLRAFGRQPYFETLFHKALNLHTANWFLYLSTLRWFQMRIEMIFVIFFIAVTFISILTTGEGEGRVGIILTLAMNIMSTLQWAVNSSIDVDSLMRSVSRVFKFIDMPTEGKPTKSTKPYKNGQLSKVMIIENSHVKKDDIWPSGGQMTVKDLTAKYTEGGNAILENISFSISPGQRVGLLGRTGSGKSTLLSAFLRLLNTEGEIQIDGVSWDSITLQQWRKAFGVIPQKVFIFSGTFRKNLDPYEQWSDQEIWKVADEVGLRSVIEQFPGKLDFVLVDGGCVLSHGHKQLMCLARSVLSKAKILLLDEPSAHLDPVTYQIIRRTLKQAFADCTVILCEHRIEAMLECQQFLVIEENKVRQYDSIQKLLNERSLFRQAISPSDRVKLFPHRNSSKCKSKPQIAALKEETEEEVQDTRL
Sequence of Cyclin-dependent kinase 5/CDK5 activator 1 (Q00535 whole entry): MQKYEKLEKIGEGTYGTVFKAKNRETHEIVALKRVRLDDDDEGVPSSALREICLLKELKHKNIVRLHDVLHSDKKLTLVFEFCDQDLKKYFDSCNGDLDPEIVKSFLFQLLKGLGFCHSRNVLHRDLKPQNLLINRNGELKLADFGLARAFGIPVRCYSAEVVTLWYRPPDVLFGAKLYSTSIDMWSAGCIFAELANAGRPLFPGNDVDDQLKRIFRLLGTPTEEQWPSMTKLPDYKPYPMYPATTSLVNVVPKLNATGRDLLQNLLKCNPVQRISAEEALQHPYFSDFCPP
Sequence of Cyclin-dependent kinase 5/CDK5 activator 1 (Q15078 whole entry, further chain): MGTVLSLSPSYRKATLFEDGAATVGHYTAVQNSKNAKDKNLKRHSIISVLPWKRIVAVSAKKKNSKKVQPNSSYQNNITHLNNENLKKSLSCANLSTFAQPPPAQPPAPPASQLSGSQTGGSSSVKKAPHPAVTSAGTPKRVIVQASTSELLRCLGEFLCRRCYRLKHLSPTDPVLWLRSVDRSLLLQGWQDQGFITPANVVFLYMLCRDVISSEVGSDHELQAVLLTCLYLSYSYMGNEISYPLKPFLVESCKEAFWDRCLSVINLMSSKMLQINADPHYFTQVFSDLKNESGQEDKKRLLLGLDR
Sequence of Luciferin 4-monooxygenase (P08659 whole entry): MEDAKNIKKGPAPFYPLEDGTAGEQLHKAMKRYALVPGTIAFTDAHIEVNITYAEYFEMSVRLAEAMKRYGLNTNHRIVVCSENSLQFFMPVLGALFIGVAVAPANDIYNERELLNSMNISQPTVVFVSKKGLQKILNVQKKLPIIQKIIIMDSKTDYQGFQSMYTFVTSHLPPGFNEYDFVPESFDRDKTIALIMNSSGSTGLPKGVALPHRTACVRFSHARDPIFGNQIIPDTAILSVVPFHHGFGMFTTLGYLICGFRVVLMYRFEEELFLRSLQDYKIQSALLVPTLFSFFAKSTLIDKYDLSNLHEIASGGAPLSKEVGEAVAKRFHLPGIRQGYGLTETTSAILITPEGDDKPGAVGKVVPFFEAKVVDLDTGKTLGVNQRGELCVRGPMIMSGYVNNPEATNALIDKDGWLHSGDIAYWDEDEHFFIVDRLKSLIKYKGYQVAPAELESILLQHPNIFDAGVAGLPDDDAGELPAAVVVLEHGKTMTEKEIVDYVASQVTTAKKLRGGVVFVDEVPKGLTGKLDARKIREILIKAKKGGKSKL

CCN(CC)C(=O)c1ccc(NC(=O)Nc2ccccc2F)cc1
EC50 [1]: > 133 µM (inactive)
EC50 [2]: 3.5 µM (active)
EC50 [3]: 225 nM (active)
EC50 [4]: 9.1 µM (inconclusive)
EC50 [5]: 4.45 µM (active)
AC50 [6]: 2.08 µM (active)
AC50 [7]: 21.1 µM (active)
AC50 [8]: 51.6 µM (active)
EC50 [9]: 4.99 µM (active)
EC50 [10]: < 701 nM (active)

COc1cccc(NC(=O)c2ccc[n+](C)c2)c1
IC50 [11]: 4.86 µM (active)
IC50 [12]: 2.33 µM (active)
IC50 [13]: > 100 µM (inactive)
IC50 [14]: 2.22 µM (active)

CCSc1nc(O)cc(-c2ccccc2)n1
IC50 [15]: > 10 µM (inactive)
IC50 [16]: > 10 µM (inactive)

Cc1cccc(C)c1OCc1nnc(S)n1N
IC50 [17]: 5.83 µM (active)
IC50 [18]: > 100 µM (inactive)

COc1cc(/C=N/NC(=O)c2ccccc2O)ccc1OCC(=O)Nc1ccc([N+](=O)[O-])cc1
IC50 [19]: > 100 µM (inactive)
IC50 [20]: > 100 µM (inactive)

O=C1C=C(c2ccccc2)C(c2ccccc2)C1 (configuration not stated)
AC50 [21]: 17 µM (active)

Cc1cccc(C)c1NC(=O)C1C(=O)c2sccc2N(C)S1(=O)=O (configuration not stated)
AC50 [22]: 273 µM (active)
